Results: ChEMBL document CHEMBL4371069, “Click chemistry for improvement in selectivity of quinazoline-based kinase inhibitors for mutant epidermal growth factor receptors” (Bioorg Med Chem Lett, 2019)

Assays:
CYP1A2 = target: T1, CYP1A2 (Homo sapiens, UniProt P05177); assay: Inhibition of CYP1A2 in human liver microsomes assessed as residual activity at 10 uM using phenacetin as substrate preincubated for 5 mins followed by NADPH addition and measured after 15 mins by LC-MS/MS analysis relative to control; type: ADME; details: probe phenacetin, read-out: Activity
T1 sequence (P05177 whole entry): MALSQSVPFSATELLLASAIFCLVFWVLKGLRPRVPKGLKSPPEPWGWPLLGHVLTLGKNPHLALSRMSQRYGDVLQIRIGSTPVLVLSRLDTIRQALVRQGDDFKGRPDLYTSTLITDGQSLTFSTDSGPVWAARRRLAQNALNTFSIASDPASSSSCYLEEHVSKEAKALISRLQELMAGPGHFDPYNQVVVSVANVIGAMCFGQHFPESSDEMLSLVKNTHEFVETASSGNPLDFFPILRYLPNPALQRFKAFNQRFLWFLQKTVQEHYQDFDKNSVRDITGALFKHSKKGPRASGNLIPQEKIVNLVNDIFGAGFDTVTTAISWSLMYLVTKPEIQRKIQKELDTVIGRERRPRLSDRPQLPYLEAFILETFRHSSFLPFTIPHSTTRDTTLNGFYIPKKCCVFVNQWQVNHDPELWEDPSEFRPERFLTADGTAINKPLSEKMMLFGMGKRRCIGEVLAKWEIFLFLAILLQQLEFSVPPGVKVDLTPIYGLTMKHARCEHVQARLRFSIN

CYP2A6 = target: T2, CYP2A6 (Homo sapiens, UniProt P11509); assay: Inhibition of CYP2A6 in human liver microsomes assessed as residual activity at 10 uM using coumarin as substrate preincubated for 5 mins followed by NADPH addition and measured after 15 mins by LC-MS/MS analysis relative to control; type: ADME; details: probe coumarin, read-out: Activity
T2 sequence (P11509 whole entry): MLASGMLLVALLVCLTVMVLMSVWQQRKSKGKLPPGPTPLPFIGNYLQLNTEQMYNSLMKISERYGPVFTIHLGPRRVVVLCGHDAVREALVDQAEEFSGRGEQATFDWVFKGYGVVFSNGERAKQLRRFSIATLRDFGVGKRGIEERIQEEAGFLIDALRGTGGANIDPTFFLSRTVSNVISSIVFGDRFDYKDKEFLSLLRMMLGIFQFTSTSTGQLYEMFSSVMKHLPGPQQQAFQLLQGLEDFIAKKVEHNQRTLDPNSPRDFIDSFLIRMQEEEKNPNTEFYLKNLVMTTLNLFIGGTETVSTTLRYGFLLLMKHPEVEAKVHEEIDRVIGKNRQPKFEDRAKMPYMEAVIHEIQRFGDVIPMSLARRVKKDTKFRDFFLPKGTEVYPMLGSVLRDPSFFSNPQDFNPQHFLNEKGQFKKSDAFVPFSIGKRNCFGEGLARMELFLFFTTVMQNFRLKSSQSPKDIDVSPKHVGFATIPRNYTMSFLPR

CYP2B6 = target: T3, CYP2B6 (Homo sapiens, UniProt P20813); assay: Inhibition of CYP2B6 in human liver microsomes assessed as residual activity at 10 uM using bupropion as substrate preincubated for 5 mins followed by NADPH addition and measured after 15 mins by LC-MS/MS analysis relative to control; type: ADME; details: probe bupropion, read-out: Activity
T3 sequence (P20813 whole entry): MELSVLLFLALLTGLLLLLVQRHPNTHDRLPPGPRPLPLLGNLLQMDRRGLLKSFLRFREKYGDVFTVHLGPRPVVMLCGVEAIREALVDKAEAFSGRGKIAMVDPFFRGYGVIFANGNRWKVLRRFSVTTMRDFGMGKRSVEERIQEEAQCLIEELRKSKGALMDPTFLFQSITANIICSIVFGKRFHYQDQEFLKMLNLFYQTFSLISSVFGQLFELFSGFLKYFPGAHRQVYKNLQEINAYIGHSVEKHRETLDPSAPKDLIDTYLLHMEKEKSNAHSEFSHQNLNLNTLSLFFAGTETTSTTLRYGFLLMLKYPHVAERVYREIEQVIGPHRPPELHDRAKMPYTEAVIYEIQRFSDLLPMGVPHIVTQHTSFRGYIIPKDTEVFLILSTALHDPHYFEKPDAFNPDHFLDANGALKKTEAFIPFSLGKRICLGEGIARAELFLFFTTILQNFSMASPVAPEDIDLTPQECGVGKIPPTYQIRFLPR

CYP2C8 = target: T4, CYP2C8 (Homo sapiens, UniProt P10632); assay: Inhibition of CYP2C8 in human liver microsomes assessed as residual activity at 10 uM using amiodiaquine as substrate preincubated for 5 mins followed by NADPH addition and measured after 15 mins by LC-MS/MS analysis relative to control; type: ADME; details: probe amiodiaquine, read-out: Activity
T4 sequence (P10632 whole entry): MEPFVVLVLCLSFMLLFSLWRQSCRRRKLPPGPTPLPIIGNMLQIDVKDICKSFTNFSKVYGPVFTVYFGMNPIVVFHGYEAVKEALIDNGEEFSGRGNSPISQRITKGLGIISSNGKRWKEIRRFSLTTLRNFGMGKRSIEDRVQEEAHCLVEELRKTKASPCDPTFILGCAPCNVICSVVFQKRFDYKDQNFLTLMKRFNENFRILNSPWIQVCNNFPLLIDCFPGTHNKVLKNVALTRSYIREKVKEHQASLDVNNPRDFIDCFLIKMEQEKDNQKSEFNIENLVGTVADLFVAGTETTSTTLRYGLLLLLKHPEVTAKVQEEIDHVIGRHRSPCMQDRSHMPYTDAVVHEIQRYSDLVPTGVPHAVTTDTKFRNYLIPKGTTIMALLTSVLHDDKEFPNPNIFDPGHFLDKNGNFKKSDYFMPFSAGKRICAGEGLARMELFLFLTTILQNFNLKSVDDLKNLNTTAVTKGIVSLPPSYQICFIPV

CYP2C9 = CYP2C9 (Homo sapiens, UniProt P11712); assay: Inhibition of CYP2C9 in human liver microsomes assessed as residual activity at 10 uM using tolbutamide as substrate preincubated for 5 mins followed by NADPH addition and measured after 15 mins by LC-MS/MS analysis relative to control; type: ADME; details: probe tolbutamide, read-out: Activity
CYP2C19 = CYP2C19 (Homo sapiens, UniProt P33261); assay: Inhibition of CYP2C19 in human liver microsomes assessed as residual activity at 10 uM using S-mephenytoin as substrate preincubated for 5 mins followed by NADPH addition and measured after 15 mins by LC-MS/MS analysis relative to control; type: ADME; details: probe S-mephenytoin, read-out: Activity
CYP2E1 = CYP2E1 (Homo sapiens, UniProt P05181); assay: Inhibition of CYP2E1 in human liver microsomes assessed as residual activity at 10 uM using chlorzoxazone as substrate preincubated for 5 mins followed by NADPH addition and measured after 15 mins by LC-MS/MS analysis relative to control; type: ADME; details: probe chlorzoxazone, read-out: Activity
Sequence of CYP2E1 (P05181 whole entry): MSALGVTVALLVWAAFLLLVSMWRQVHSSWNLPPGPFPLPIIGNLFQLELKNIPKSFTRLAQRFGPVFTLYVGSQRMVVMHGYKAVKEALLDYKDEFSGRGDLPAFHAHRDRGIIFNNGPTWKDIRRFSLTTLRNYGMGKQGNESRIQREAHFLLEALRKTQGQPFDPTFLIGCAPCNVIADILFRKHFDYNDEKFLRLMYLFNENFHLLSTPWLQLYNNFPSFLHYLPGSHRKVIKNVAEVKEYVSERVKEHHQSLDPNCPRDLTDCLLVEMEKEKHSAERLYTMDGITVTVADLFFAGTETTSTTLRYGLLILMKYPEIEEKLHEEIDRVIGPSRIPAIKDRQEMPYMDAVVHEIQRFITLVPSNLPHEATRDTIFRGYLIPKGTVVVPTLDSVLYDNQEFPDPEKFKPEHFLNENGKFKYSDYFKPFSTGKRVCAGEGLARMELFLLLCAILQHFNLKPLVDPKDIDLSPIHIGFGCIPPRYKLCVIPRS

CYP3A4 = CYP3A4 (Homo sapiens, UniProt P08684); assay: Inhibition of CYP3A4 in human liver microsomes assessed as residual activity at 10 uM using midazolam as substrate preincubated for 5 mins followed by NADPH addition and measured after 15 mins by LC-MS/MS analysis relative to control; type: ADME; details: probe midazolam, read-out: Activity
Sequence of CYP3A4 (P08684 whole entry): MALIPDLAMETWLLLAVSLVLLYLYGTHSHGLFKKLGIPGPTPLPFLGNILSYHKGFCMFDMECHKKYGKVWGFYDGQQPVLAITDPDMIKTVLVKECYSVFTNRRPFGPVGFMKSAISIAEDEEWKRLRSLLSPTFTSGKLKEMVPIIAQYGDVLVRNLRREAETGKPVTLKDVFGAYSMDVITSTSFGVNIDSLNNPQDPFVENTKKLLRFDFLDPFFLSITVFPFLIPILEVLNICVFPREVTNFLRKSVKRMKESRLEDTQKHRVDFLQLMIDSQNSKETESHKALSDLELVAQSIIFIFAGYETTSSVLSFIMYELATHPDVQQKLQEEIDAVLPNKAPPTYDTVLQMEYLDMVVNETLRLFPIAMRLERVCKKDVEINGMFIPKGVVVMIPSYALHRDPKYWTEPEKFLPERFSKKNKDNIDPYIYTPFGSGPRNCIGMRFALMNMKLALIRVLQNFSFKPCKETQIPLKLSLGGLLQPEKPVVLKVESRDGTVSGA

[1] = target: Epidermal growth factor receptor (Homo sapiens, UniProt P00533); type: ADME, cell-based, Sf21
Sequence of Epidermal growth factor receptor (Homo sapiens, UniProt P00533) (P00533 whole entry): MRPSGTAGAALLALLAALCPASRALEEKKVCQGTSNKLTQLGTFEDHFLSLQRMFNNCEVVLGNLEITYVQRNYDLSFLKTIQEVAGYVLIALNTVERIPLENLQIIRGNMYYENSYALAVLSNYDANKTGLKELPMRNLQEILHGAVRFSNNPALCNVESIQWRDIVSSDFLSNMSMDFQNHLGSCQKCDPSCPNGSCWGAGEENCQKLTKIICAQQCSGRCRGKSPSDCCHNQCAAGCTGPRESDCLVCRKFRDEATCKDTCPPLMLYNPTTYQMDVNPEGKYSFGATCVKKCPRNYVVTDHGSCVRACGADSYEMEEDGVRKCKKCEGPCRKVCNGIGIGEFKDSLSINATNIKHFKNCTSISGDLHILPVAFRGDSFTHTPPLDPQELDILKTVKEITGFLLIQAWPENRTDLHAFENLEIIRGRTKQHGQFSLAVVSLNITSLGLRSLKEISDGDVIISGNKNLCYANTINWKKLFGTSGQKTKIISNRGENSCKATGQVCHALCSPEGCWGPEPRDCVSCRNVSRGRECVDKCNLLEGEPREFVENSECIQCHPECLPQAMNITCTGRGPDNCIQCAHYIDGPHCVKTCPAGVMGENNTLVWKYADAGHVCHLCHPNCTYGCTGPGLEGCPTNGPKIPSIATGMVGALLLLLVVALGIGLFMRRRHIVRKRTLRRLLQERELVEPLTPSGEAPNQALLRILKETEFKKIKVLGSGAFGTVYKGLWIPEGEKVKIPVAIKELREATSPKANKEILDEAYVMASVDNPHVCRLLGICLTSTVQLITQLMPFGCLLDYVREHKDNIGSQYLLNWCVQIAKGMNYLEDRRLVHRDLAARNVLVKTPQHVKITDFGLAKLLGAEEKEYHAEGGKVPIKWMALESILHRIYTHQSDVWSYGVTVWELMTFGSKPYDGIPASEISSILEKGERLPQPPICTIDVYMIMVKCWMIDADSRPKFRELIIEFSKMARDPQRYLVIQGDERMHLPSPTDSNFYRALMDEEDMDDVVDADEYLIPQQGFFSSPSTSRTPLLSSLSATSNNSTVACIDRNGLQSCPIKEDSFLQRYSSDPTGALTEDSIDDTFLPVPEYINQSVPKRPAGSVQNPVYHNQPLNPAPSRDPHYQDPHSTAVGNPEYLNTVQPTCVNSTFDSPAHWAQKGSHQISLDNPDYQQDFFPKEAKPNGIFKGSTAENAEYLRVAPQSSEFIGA
Description: Inhibition of human N-terminal GST-tagged EGFR kinase domain (696 to end residues) expressed in baculovirus infected sf21 cells using poly(Glu, Tyr) 4:1 as substrate

[2] = target: Epidermal growth factor receptor (Homo sapiens, UniProt P00533, L858R/T790M); assay: biochemical; type: cell-based, Sf21
Sequence of Epidermal growth factor receptor (Homo sapiens, UniProt P00533, L858R/T790M) (P00533 25-1210 T790M/L858R limits assumed): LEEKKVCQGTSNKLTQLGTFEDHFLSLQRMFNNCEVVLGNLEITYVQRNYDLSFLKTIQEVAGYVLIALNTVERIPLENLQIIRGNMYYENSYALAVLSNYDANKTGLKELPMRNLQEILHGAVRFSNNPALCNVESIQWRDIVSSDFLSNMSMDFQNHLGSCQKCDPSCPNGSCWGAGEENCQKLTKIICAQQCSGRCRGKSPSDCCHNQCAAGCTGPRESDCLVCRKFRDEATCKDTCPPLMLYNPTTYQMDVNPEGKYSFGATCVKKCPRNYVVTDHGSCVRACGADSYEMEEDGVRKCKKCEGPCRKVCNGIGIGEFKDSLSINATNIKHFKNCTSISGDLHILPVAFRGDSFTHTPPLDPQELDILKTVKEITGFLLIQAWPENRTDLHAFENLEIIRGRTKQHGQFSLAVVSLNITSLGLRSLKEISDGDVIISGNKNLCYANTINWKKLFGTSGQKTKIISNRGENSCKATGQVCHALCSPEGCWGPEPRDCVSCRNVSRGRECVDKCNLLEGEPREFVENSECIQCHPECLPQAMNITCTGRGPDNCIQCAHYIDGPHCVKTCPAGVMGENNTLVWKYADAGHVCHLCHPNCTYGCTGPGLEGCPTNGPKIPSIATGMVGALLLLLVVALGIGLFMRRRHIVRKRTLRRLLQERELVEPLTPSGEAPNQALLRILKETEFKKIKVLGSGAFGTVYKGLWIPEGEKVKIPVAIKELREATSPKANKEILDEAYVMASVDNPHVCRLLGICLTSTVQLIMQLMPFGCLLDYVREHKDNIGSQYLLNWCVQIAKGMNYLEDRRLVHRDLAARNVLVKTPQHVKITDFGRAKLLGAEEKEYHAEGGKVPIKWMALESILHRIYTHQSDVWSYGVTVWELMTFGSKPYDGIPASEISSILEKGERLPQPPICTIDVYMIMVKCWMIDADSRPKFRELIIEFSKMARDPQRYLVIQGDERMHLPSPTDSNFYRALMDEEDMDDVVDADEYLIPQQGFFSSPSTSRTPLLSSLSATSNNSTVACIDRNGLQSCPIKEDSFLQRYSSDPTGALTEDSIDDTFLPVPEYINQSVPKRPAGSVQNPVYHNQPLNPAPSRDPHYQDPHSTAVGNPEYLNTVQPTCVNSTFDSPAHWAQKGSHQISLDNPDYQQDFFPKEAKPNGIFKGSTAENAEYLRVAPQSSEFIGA

[3] = target: Receptor tyrosine-protein kinase erbB-2 (Homo sapiens, UniProt P04626); assay: Inhibition of human C-terminal His6-tagged ERBB2 (676 to end residues) expressed in baculovirus infected sf21 cells using poly(Glu, Tyr) 4:1 as substrate
Sequence of Receptor tyrosine-protein kinase erbB-2 (P04626 whole entry): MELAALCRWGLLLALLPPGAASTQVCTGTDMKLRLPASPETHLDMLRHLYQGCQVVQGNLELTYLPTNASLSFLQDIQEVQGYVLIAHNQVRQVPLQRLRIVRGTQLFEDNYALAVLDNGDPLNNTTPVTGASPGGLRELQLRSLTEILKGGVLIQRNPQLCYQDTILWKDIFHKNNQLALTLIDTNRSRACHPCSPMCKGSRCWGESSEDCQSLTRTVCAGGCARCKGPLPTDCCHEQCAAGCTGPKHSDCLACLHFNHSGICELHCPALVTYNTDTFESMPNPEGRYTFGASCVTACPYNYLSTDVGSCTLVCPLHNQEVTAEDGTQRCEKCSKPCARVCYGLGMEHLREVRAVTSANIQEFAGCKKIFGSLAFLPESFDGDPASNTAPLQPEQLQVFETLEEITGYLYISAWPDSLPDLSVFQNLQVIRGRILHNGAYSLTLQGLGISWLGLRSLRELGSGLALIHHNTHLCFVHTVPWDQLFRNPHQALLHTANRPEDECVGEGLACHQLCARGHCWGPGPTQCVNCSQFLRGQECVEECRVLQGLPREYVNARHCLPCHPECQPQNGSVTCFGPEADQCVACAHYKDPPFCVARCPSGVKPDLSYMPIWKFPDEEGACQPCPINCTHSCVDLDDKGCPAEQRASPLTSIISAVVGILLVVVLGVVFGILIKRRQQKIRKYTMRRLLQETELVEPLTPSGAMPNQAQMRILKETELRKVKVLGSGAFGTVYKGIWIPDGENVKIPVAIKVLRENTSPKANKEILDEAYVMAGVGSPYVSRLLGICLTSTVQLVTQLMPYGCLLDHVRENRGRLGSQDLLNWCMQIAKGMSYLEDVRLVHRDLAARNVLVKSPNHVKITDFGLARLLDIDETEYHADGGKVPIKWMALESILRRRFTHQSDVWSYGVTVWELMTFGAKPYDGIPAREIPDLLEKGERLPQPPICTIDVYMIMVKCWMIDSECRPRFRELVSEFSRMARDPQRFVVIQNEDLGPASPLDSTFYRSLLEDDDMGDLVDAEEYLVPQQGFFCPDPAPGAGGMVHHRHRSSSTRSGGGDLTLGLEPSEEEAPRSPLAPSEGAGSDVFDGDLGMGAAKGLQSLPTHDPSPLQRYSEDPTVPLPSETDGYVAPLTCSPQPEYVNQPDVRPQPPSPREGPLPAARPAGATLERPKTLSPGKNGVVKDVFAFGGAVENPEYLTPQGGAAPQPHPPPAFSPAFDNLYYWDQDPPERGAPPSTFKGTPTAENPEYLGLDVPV

NCI-H1975 = assay: Antiproliferative activity against human NCI-H1975 cells harboring EGFR T790M/L858R double mutant after 72 hrs by EZ-Cytox assay; type: functional, cell-based; details: NCI-H1975, 72 h
PC-9 = assay: Antiproliferative activity against human PC9 cells harboring EGFR exon-19 del mutant after 72 hrs by EZ-Cytox assay; type: functional, cell-based; details: PC-9, 72 h
A549 = assay: Antiproliferative activity against human A549 cells harboring wild-type EGFR after 72 hrs by EZ-Cytox assay; type: ADME, cell-based; details: A549, 72 h
SK-BR-3 = assay: Antiproliferative activity against HER2-dependant human SKBR3 cells after 72 hrs by EZ-Cytox assay; type: ADME, cell-based; details: SK-BR-3, 72 h
[4] = Safety index, ratio of compound IC50 to afatinib IC50 for antiproliferative activity against HER2-dependant human SKBR3 cells; type: cell-based; details: SK-BR-3 cells (HER2-dependent), read-out: Ratio IC50
HepG2 = assay: Cytotoxicity against human HepG2 cells after 24 hrs by LDH release assay; type: cell-based; details: HepG2, 24 h

In the case of `CC(=O)N1CCN(c2ccc(OCC3COC(Cn4ccnc4)(c4ccc(Cl)cc4Cl)O3)cc2)CC1` (configuration not stated) [KETOCONAZOLE], the activity at 0.25 h, 10 µM (CYP1A2) is reported as 92.5%, the activity at 0.25 h, 10 µM (CYP2A6) is reported as 91.8% and the activity at 0.25 h, 10 µM (CYP2B6) is reported as 84.1%. For the same compound, the activity at 0.25 h, 10 µM (CYP2C8) was 95.6%, the activity at 0.25 h, 10 µM (CYP2C9) was 85% and the activity at 0.25 h, 10 µM (CYP2C19) was 85.8%. For the same compound, the activity at 0.25 h, 10 µM (CYP2E1) was 98.1% and the activity at 0.25 h, 10 µM (CYP3A4) was 35.7%.

`C=CC(=O)Nc1cc2c(Nc3ccc(F)c(Cl)c3)ncnc2cc1OCc1cn(Cc2ccc(C)cc2)nn1` gave an IC50 [1] of 105 nM, an IC50 [2] of 15 nM and an IC50 [3] of 158 nM. It also gave an IC50 (NCI-H1975) of 417 nM, an IC50 (PC-9) of 1.3 nM and an IC50 (A549) of 737 nM. For the same compound, the IC50 (SK-BR-3) was 216 nM and the selectivity ratio [4] was > 95.

Work on `C=CC(=O)Nc1cc2c(Nc3ccc(F)c(Cl)c3)ncnc2cc1OCc1cn(-c2ccccc2)nn1` yielded an IC50 [1] of 74 nM, an IC50 [2] of 26 nM and an IC50 [3] of 471 nM. For the same compound, the IC50 (NCI-H1975) was 4780 nM and the IC50 (PC-9) was 32 nM.

With `C=CC(=O)Nc1cc2c(Nc3ccc(F)c(Cl)c3)ncnc2cc1OCc1cn(Cc2ccc(OC)cc2)nn1` the IC50 [1] was 41 nM, the IC50 [2] was 5 nM and the IC50 [3] was 212 nM. It also gave an IC50 (NCI-H1975) of 701 nM and an IC50 (PC-9) of 1.1 nM.

In the case of `C=CC(=O)Nc1cc2c(Nc3ccc(F)c(Cl)c3)ncnc2cc1OCc1cn(Cc2ccccc2F)nn1`, the IC50 [1] is reported as 65 nM, the IC50 [2] is reported as 12 nM and the IC50 [3] is reported as 78 nM. It also gave an IC50 (NCI-H1975) of 619 nM and an IC50 (PC-9) of 1.2 nM.

`CN(C)C/C=C/C(=O)Nc1cc2c(Nc3ccc(F)c(Cl)c3)ncnc2cc1O[C@H]1CCOC1` [AFATINIB] gave an IC50 (NCI-H1975) of 131 nM, an IC50 (PC-9) of 0.1 nM and an IC50 (A549) of 3770 nM. It also gave an IC50 (SK-BR-3) of 1.2 nM.

`C=CC(=O)Nc1cc2c(Nc3ccc(F)c(Cl)c3)ncnc2cc1OCc1cn(Cc2ccccc2)nn1` showed an IC50 [1] of 39 nM, an IC50 [2] of 8 nM and an IC50 [3] of 90 nM. For the same compound, the IC50 (NCI-H1975) was 808 nM and the IC50 (PC-9) was 1.2 nM.

For `C#CCOc1cc2ncnc(Nc3ccc(F)c(Cl)c3)c2cc1NC(=O)C=C`, the IC50 (NCI-H1975) was 1590 nM, the IC50 (PC-9) was 2.9 nM and the IC50 (A549) was > 10000 nM. It also gave an IC50 (SK-BR-3) of 106 nM.

For `C=CC(=O)Nc1cc2c(Nc3ccc(F)c(Cl)c3)ncnc2cc1OCc1cn(CCc2ccccc2)nn1`, the IC50 [1] was 41 nM, the IC50 [2] was 12 nM and the IC50 [3] was 448 nM. For the same compound, the IC50 (NCI-H1975) was 2090 nM and the IC50 (PC-9) was 3.6 nM.

For `COC(=O)C1=C(C)NC(C)=C(C(=O)OC)C1c1ccccc1[N+](=O)[O-]` [NIFEDIPINE], the IC50 (HepG2) was 9400 nM.

In the case of `C=CC(=O)Nc1cc2c(Nc3ccc(F)c(Cl)c3)ncnc2cc1OCc1cn(CCCN2CCOCC2)nn1`, the IC50 [1] is reported as 12 nM, the IC50 [2] is reported as 4 nM and the IC50 [3] is reported as 54 nM. It also gave an IC50 (NCI-H1975) of 341 nM, an IC50 (PC-9) of 0.6 nM and an IC50 (A549) of 8160 nM. For the same compound, the IC50 (SK-BR-3) was 19 nM.

`C=CC(=O)Nc1cc2c(Nc3ccc(F)c(Cl)c3)ncnc2cc1OCc1cn(CCCO)nn1` gave an IC50 [1] of 12 nM, an IC50 [2] of 4 nM and an IC50 [3] of 67 nM. It also gave an IC50 (NCI-H1975) of 1370 nM and an IC50 (PC-9) of 1.5 nM.
